Results published in PubChem BioAssay (NCI).
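Protocol summary: plate cells (96-well), add compound at 5 concentrations, incubate 48 h, interpolate endpoints linearly. GI50 marks 50% less growth. At the TGI there is no net growth.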

Assays:
Experiment in all cases: growth of human tumour cells (NCI), 48 h
ACHN renal = test system: ACHN renal
NCI-H226 lung = test system: NCI-H226 lung
NCI-H522 lung = test system: NCI-H522 lung
MALME-3M melanoma = test system: MALME-3M melanoma
BT-549 breast = test system: BT-549 breast
MDA-MB-231 breast = test system: MDA-MB-231 breast
SR leukemia = test system: SR leukemia
TK-10 renal = test system: TK-10 renal
SK-MEL-5 melanoma = test system: SK-MEL-5 melanoma
NCI/ADR-RES ovarian = test system: NCI/ADR-RES ovarian

SMILES	GI50 (ACHN renal)	TGI (ACHN renal)	GI50 (NCI-H226 lung)	TGI (NCI-H226 lung)	GI50 (NCI-H522 lung)	TGI (NCI-H522 lung)	GI50 (MALME-3M melanoma)	TGI (MALME-3M melanoma)	GI50 (BT-549 breast)	TGI (BT-549 breast)	GI50 (MDA-MB-231 breast)	TGI (MDA-MB-231 breast)	GI50 (SR leukemia)	GI50 (TK-10 renal)	TGI (TK-10 renal)	GI50 (SK-MEL-5 melanoma)	TGI (SK-MEL-5 melanoma)	GI50 (NCI/ADR-RES ovarian)	TGI (NCI/ADR-RES ovarian)	TGI (SR leukemia)
Cc1cc2nc3c4cc(O)ccc4n(CCN(C)C)c3nc2cc1C	0.408 µM	10.3 µM	1.18 µM	5.45 µM	0.541 µM	3.32 µM	1.14 µM	2.41 µM	2.03 µM	6.27 µM	0.898 µM	5.71 µM	0.309 µM	2.21 µM	6.13 µM	1.59 µM	2.97 µM	0.499 µM	4.2 µM	–
COc1ccc(C2CC(c3cccc(Nc4ccnc5cc(Cl)ccc45)c3)=NN2C=O)cc1 (centres undefined)	0.867 µM	> 100 µM	39.3 µM	> 100 µM	0.265 µM	3.06 µM	–	> 100 µM	0.486 µM	9.86 µM	1.7 µM	> 66.4 µM	0.271 µM	0.882 µM	7.86 µM	0.403 µM	25.8 µM	0.379 µM	4.92 µM	2.04 µM
CC(C)c1[nH]nc(C(N)=O)c1N=NN(C)C	–	> 100 µM	–	71.6 µM	–	67.8 µM	–	> 100 µM	–	> 100 µM	–	> 100 µM	–	–	> 100 µM	–	> 100 µM	–	> 100 µM	71.2 µM
CC1=CC(=O)C2=C(C)CCC3C(C)C(=O)OC3C12 (centres undefined)	–	> 100 µM	–	> 100 µM	–	> 100 µM	–	> 100 µM	–	> 100 µM	–	> 100 µM	–	–	> 100 µM	–	> 100 µM	–	> 100 µM	> 100 µM
CCN(CCCN(C)C)Cc1cc(I)cc(C)c1O	24.9 µM	58.6 µM	38.8 µM	> 100 µM	18.7 µM	36.4 µM	19.8 µM	36.8 µM	12.7 µM	27.9 µM	26.8 µM	91 µM	1.04 µM	4.85 µM	22.6 µM	17.6 µM	31.5 µM	27 µM	> 100 µM	14.5 µM
O=S(=O)(NCCCNc1nccc(-c2c(-c3ccc(O)cc3)nc3sccn23)n1)c1ccc(F)cc1	2.09 µM	> 100 µM	2.15 µM	10.1 µM	1.83 µM	6.27 µM	0.0391 µM	3.56 µM	2.36 µM	10.4 µM	1.82 µM	> 100 µM	2.07 µM	4.48 µM	32.2 µM	1.21 µM	2.67 µM	4.59 µM	> 100 µM	> 100 µM
NNC(=S)N/N=C(\C(=O)Nc1cccc(O)c1)C1C(=O)NC(=S)NC1=O	–	> 100 µM	–	> 100 µM	–	> 100 µM	–	> 100 µM	–	> 100 µM	–	> 100 µM	–	–	> 100 µM	–	> 100 µM	–	> 100 µM	> 100 µM
Cc1cc(O)c(=O)cc2c1C[C@H]1CC(C)(C)/C=C/C[C@]3(C)Oc4cc(=O)c(O)cc(C)c4C[C@H]3C[C@H](O)[C@@]1(C)O2	< 0.01 µM	14.5 µM	0.0541 µM	13.6 µM	0.0192 µM	0.0853 µM	0.0282 µM	0.544 µM	0.0319 µM	4.55 µM	0.0322 µM	50.3 µM	< 0.0115 µM	0.0211 µM	9.95 µM	0.0166 µM	0.0985 µM	< 0.01 µM	–	0.591 µM
O=c1c2c(=NCCN3CCCC3)cc3c(=O)n(CCCN4CCOCC4)c(=O)c4c(-c5ccc(CN6CCCC6)cc5)cc(c(O)n1CCCN1CCOCC1)c2c4-3	0.0257 µM	0.783 µM	0.0523 µM	0.49 µM	0.0265 µM	0.135 µM	0.105 µM	0.388 µM	0.116 µM	0.5 µM	0.0397 µM	0.384 µM	< 0.0108 µM	0.0329 µM	0.84 µM	0.133 µM	0.3 µM	0.364 µM	9.65 µM	11.1 µM
CCOC(=O)c1ccc(NC(=O)Nc2nncs2)cc1	1.24 µM	23.9 µM	1.09 µM	19.5 µM	0.0746 µM	1.87 µM	0.132 µM	36.1 µM	0.735 µM	13.3 µM	0.532 µM	6.35 µM	0.0527 µM	5.79 µM	41.2 µM	0.0672 µM	5.16 µM	0.229 µM	10.6 µM	24.3 µM
C/C(=N\NC(=S)N1CCCCC1)c1ccccn1	< 0.0116 µM	7.34 µM	0.32 µM	2.95 µM	0.136 µM	1.51 µM	0.145 µM	3.05 µM	0.745 µM	5.27 µM	0.123 µM	6.33 µM	< 0.0157 µM	0.472 µM	4.14 µM	0.0694 µM	0.87 µM	< 0.01 µM	6.77 µM	10.7 µM
O=Nc1ccc(O)c(=O)cc1	0.906 µM	2.63 µM	2.5 µM	8.64 µM	0.141 µM	0.524 µM	1.21 µM	4.14 µM	2.86 µM	8.75 µM	2.31 µM	8.79 µM	0.954 µM	1.82 µM	9.18 µM	3.63 µM	10.6 µM	2.6 µM	10.6 µM	9.19 µM
CCN1C(=S)N(c2ccccc2)C2NC(=S)N(/N=C/C=C/c3ccccc3OC)C21 (centres undefined)	0.556 µM	> 100 µM	0.962 µM	> 23.1 µM	0.224 µM	1.26 µM	0.957 µM	> 100 µM	0.954 µM	–	0.544 µM	> 27.4 µM	0.3 µM	–	> 100 µM	0.322 µM	3.14 µM	0.307 µM	> 100 µM	–
O=c1[nH]c2ccccc2c2ccccc12	> 100 µM	> 100 µM	> 100 µM	> 100 µM	> 100 µM	> 100 µM	> 100 µM	> 100 µM	> 100 µM	> 100 µM	> 100 µM	> 100 µM	77.3 µM	> 100 µM	> 100 µM	91.5 µM	> 100 µM	> 100 µM	> 100 µM	> 100 µM
